Where two headings read alike, the source gives them in different places. Blank lines part the entries; values can stand above or below the compound they belong to.
Assays:
[1] = design: method as in Seymour et al., 2013; Vandenberg and Cory, 2013; details: ref Seymour et al., 2013, Vandenberg and Cory, cited from earlier work
[2] = design: method as in Schoenwaelder et al., 2011; details: in vivo; ref Schoenwaelder et al., 2011; cited from earlier work
hematologic malignancies = details: preclinical researches; cited from earlier work
Bcl-2 [3] = details: cited from earlier work
Bcl-xl = details: cited from earlier work
T47D cells [4] = test: Western blot of cytochrome c in mitochondrial and cytosol fraction; type: cell-based, human; details: 4 or 8 μM, 48 h
Description: (§1) After compound M1 treatment, cells were lysed with RIPA buffer supplemented with protease inhibitor (Selleck) on ice for 30 min following by centrifugation at 14,000 × g for 15 min. Protein concentrations of the lysates were determined by BCA assay kit. Equivalent amounts of cellular protein were separated by SDS-PAGE and transferred to polyvinylidene difluoride membranes. And then, the membranes were blocked with 5% skim milk in TBST. The membranes were incubated with primary antibodies and peroxidase-conjugated secondary antibodies. Finally, the membranes were visualized with an enhanced chemiluminescent detection kit.

[5] = test system: MDA-MB-231, T47D, and BT549 cells; test: CCK-8 cell viability, dose and time course in three breast cancer cell lines; type: cell-based, human; details: series of doses 72 h; time course at 5, 2, or 3 μM
Description: (§2) The human breast cancer cell line MDA-MB-231, T47D, and BT549, were purchased from Cell Bank of Chinese Academy of Sciences. MDA-MB-231 were cultured in L-15 medium with 10% FBS at 37°C with 100% air, and T47D were cultured in DMEM/High glucose medium with 10% FBS at 37°C with 5% CO2. BT549 was cultured in 1,640 medium with 10% FBS at 37°C with 5% CO2.
(§3) Cell viability was measured by Cell Counting Kit-8 (CCK-8) assay following the manufacturer's protocol. Cells were plated at 5 × 10^3 cells per well in 96-well plates. After compound M1 treatment, cells were incubated with 10 μL CCK-8 for 2 h at 37°C with 5% CO2. The results were determined at 450 nm wave length.

MDA-MB-231 cells [6] = test: Mitochondrial membrane potential (JC-1 staining); type: cell-based, human; details: 2 or 4 μM, 48 h
Description: The MMP was measured using JC-1 assay kit according to the manufacturer's protocol. Cells were treated with 2 or 4 μM compound M1 for 48 h. The cells were cultured with JC-1 staining reagent (1x) at 37°C for 20 min. Cells were washed twice by JC-1 staining buffer. Next, the fluorescence intensity of JC-1 aggregate or monomer was observed by fluorescent microscopic. The ratio of aggregates to monomers was estimated as a symbol of mitochondrial membrane potential.

T47D cells [7] = test: Annexin V-FITC/PI apoptosis assay (flow cytometry); type: cell-based, human; details: 48 h
Description: Cell apoptosis was measured by Annexin V-FITC/PI double-staining Kit following the manufacturer's protocol. After treatment with 8 or 16 μM compound M1 for 48 h, cells were washed twice with cold phosphate buffer saline and then, suspended in 100 μL binding buffer (BD CAT. NO.556547) with 5 μL Annexin-V (BD CAT. NO.556420) and 5 μL PI (BD CAT. NO.556463). And cells were gently vortexed and incubated at room temperature for 15 min in darkness for flow cytometric (Becton Dickison) analysis.

MDA-MB-231 cells [8] = test: Clonogenic assay; type: cell-based, human; details: 4 or 8 μM, 48 h, then 10 days
Description: The cells were plated at 200 cells per well in six-well culture plates followed by compound M1 for 48 h. At the end of treatment, the cells were cultured with fresh medium, and were grown at 37°C for 10 days. After colony formation, the cells were washed with PBS and immobilized by 4% formaldehyde at room temperature for 30 min. Finally, the cells were dyed with 0.5% crystal violet.

MDA-MB-231 cells [9] = test: Cell viability CCK-8 assay; type: cell-based; details: Homo sapiens, 48 h
Description: as §2, §3

[10] = target: recombinant human Bcl-2 protein (Homo sapiens, UniProt P10415); test: Surface plasmon resonance (SPR) binding assay
Description: The interaction between virtual screening candidates and Bcl-2 was determined using a PlexArray HT biological molecular interaction analyzer (PLEXERA LLC, USA). Candidates were covalently immobilized to the surface of sensor chip following the standard coupling reaction guide. Candidates were dissolved in DMSO to a final concentration of 10 μM. To analyze binding signal, a set of concentration gradient (700, 350, 175, 87.5 nM) of Bcl-2 protein were, respectively, diluted with PBST (1x PBS + 0.1% Tween-20, pH 7.4). PBST was also used as running buffer and samples were injected into the flow cell chamber of the sensor chip one by another with rate of 2 μL/s for 300 s. After the injection stage, running buffer was flowed over the chip surface for 300 s at 2 μL/s to allow the bound analytes to dissociate from the Bcl-2. The response unit (RU) of sample dots on the chip surface was recorded by the interaction analyzer during the whole process. In this way, dissociation curves obtained. HBS-P buffer was used as vehicle controls. Lastly, the changes in RU and the binding curve were measured by the PlexeraDE software (PLEXERA LLC, USA).

Bcl-2 [11] = test: Western blot of Bcl-2 expression; type: cell-based, human; details: MDA-MB-231, T47D, and BT549 cells; different doses 48 h or 8 μM over time
Description: as §1

T47D and BT549 cells = test: Western blot of cleaved caspase-3 and cleaved PARP; type: cell-based, human; details: 48 h
Description: as §1

MDA-MB-231 cells [12] = test: EdU incorporation assay; type: cell-based, human; details: 4 or 8 μM, 48 h
Description: Cell Proliferation was measured by Cell Light EdU DNA Cell Proliferation Kit. Cells were plated in 96-well culture plates. Cells were treated with 4 or 8 μM compound M1 for 48 h. At the end of treatment, cells were incubated with EdU reagent for 2 h at 37°C. Four percent of paraformaldehyde was used to fix the cells for 15 min. Then, cells were incubated with 0.5% Triton X-100 for 30 min. Washed cells with PBS three times. After that, cells were dyed with reaction cocktail for 30 min, and stained cell nucleus with 5 μg/mL of Hoechst 33,342 for 30 min. Images were observed by fluorescent microscope.

MDA-MB-231 cells [13] = test: Detection of reactive oxygen species (DCFH-DA); type: cell-based, human; details: 2 or 4 μM, 48 h
Description: Cells were treated with 2 or 4 μM compound M1 for 48 h. After that, cells were rinsed twice with PBS and incubated with DCFH-DA (10 μmol/L) at 37°C in a darkroom. The fluorescence intensity of DCF was detected at an emission wavelength of 525 nm and excitation wavelength of 488 nm.

[14] = cited from earlier work
Mcl-1 = details: cited from earlier work
[15] = compound immobilized on chip, Bcl-2 protein 700 nM, read-out: KD, dissociation equilibrium constant

Sequence of recombinant human Bcl-2 protein (P10415 whole entry): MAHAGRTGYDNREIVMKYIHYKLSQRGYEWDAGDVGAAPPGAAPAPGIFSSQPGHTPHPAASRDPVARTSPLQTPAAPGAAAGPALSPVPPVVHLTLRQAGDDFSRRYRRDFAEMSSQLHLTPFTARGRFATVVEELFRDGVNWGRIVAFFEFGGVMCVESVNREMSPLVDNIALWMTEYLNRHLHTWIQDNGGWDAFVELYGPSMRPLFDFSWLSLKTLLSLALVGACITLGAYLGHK

Compound: CC1(C)CCC(CN2CCN(c3ccc(C(=O)NS(=O)(=O)c4ccc(NCC5CCOCC5)c([N+](=O)[O-])c4)c(Oc4cnc5[nH]ccc5c4)c3)CC2)=C(c2ccc(Cl)cc2)C1 [ABT-199]
tumor lysis syndrome ([1]; patients with chronic lymphocytic leukemia): tumor lysis syndrome was caused | activity in patients with lymphoma ([1]; phase I trials): greater activity than ABT-263 | effects on platelet counts ([1]; phase I trials): no significant effects on platelet counts

Compound: CC1(C)CCC(c2ccc(Cl)cc2)=C(CN2CCN(c3ccc(C(=O)NS(=O)(=O)c4ccc(N[C@H](CCN5CCOCC5)CSc5ccccc5)c(S(=O)(=O)C(F)(F)F)c4)cc3)CC2)C1 [ABT-263]
thrombocytopenia [2]: can cause thrombocytopenia | cytotoxicity against hematologic malignancies (hematologic malignancies): significant cytotoxicity

Compound: CN(C)CC[C@H](CSc1ccccc1)Nc1ccc(S(=O)(=O)NC(=O)c2ccc(N3CCN(Cc4ccccc4-c4ccc(Cl)cc4)CC3)cc2)cc1[N+](=O)[O-] [ABT-737]
thrombocytopenia [2]: can cause thrombocytopenia | affinity with Bcl-2 (Bcl-2 [3]): high affinity | affinity with Bcl-xl (Bcl-xl): high affinity | cytotoxicity against hematologic malignancies (hematologic malignancies): significant cytotoxicity

Compound: COc1cc(N2C(C(C)=O)=NN(c3ccc(C)cc3)C2c2ccccc2OCc2ccccc2F)ccc1NC(=O)C(C)C (stereo not drawn) [M1]
release of cytochrome c from mitochondria to cytosol (T47D cells [4]): increased the release of cytochrome c | cell proliferation (cell viability) [5]: inhibits cell proliferation in concentration- and time- dependent | mitochondrial membrane potential (MMP) (MDA-MB-231 cells [6]): caused the disturbance of MMP | apoptosis (Annexin V staining) (T47D cells [7]): dose-dependent increase in apoptosis | clonogenicity (MDA-MB-231 cells [8]): reduced in a dose-dependent manner | IC50 (MDA-MB-231 cells [9]): 5000 nM | koff [10]: 0.00142 s⁻¹ | kon [10]: 4480 M⁻¹ s⁻¹ | Kd ([10]; M1, text and Figure 5B, read-out: KD): 370 nM | Kd [10, 15]: 317 nM | protein expression of Bcl-2 (Bcl-2 [11]): decreased the protein expression of Bcl-2 | cleaved PARP and cleaved caspase-3 (T47D and BT549 cells): increase | EdU-positive cells (MDA-MB-231 cells [12]): reduced number of EdU-positive cells | level of generated ROS (MDA-MB-231 cells [13]): elevation in the level of generated ROS

IC50 (MDA-MB-231 cells [9]): > 50000 nM | Kd [10, 15]: 406 nM
Compound: Cc1ccc(S(=O)(=O)N(Cc2ccc(Cl)cc2)c2ccccc2C(=O)Nc2ccccc2C(=O)NC(C)c2ccccc2)cc1 (stereo not drawn) [M2]

IC50 (MDA-MB-231 cells [9]): > 50000 nM | Kd [10, 15]: 856 nM
Compound: Cc1cc(C(=O)C2=C(O)C(=O)N(CCCN3CCOCC3)C2c2cccc(Oc3ccccc3)c2)ccc1OCc1ccccc1 (stereo not drawn) [M3]

IC50 (MDA-MB-231 cells [9]): > 50000 nM | Kd [10, 15]: 4760 nM
Compound: COc1cc(-c2cc(-c3ccccc3)nc(SCC(=O)Nc3cc(Cl)ccc3C)c2C#N)ccc1OCc1ccccc1 [M4]

IC50 (MDA-MB-231 cells [9]): > 50000 nM | Kd [10, 15]: 570 nM
Compound: Cc1ccc(S(=O)(=O)N(Cc2ccc(Cl)cc2)c2ccccc2C(=O)Nc2ccc(S(=O)(=O)Nc3ccc(F)cc3)cc2)cc1 [M5]

IC50 (MDA-MB-231 cells [9]): > 50000 nM | Kd [10, 15]: 68.5 nM
Compound: COc1ccc(/C=c2/sc3n(c2=O)C(c2ccc(Cl)cc2)C(C(=O)Nc2ccccc2)=C(C)N=3)cc1COc1ccc(F)cc1F (stereo not drawn) [M6]

IC50 (MDA-MB-231 cells [9]): > 50000 nM | Kd [10, 15]: 1590 nM
Compound: CCN(CC)c1ccc(N2C(C(C)=O)=NN(c3ccc(Cl)cc3)C2c2ccccc2OCc2ccc(Cl)cc2Cl)cc1 (stereo not drawn) [M7]

IC50 (MDA-MB-231 cells [9]): > 50000 nM | Kd [10, 15]: 10800 nM
Compound: CCOc1cccc(C2N(c3ccccc3)N=C(C(C)=O)N2c2ccc(N3CCOCC3)c(Cl)c2)c1OCc1ccc(Cl)cc1Cl (stereo not drawn) [M8]

Compound: AT-101
affinity with Bcl-2 (Bcl-2 [3]): submicromolar concentrations | clinical activity ([14]; early phase II trials, monotherapy or combination, lung and prostate cancers, ref Ready et al., 2011): failed to exert significant clinical activity | tolerability in patients ([14]; ref Liu et al., 2009): well-tolerated | affinity with Bcl-xl (Bcl-xl): submicromolar concentrations | affinity for Mcl-1 (Mcl-1): submicromolar concentrations

From article PMC6478794, “Identification of a Novel Bcl-2 Inhibitor by Ligand-Based Screening and Investigation of Its Anti-cancer Effect on Human Breast Cancer Cells” (Frontiers in Pharmacology, 2019)
